Reference: ChEMBL document CHEMBL1158726, “Taxoids and abietanes from callus cultures of Taxus cuspidata” (2005)

Columns and labels:
Type in all cases: functional, A2780 ADR
[1] = Reversal of multidrug resistance in human 2780AD cells assessed as [3H]vincristine accumulation at 1 ug/mL after 2 hrs relative to verapamil
[2] = Reversal of multidrug resistance in human 2780AD cells assessed as [3H]vincristine accumulation at 0.1 ug/mL after 2 hrs relative to verapamil
[3] = Reversal of multidrug resistance in human 2780AD cells assessed as [3H]vincristine accumulation at 0.1 ug/mL after 2 hrs relative to control
[4] = Reversal of multidrug resistance in human 2780AD cells assessed as [3H]vincristine accumulation at 1 ug/mL after 2 hrs relative to control
[5] = Reversal of multidrug resistance in human 2780AD cells assessed as [3H]vincristine accumulation at 10 ug/mL after 2 hrs relative to control
[6] = Reversal of multidrug resistance in human 2780AD cells assessed as [3H]vincristine accumulation at 10 ug/mL after 2 hrs relative to verapamil

**Q.** Which Activity [1] does the source give for `C=C1[C@@H](OC(C)=O)CC[C@]2(C)[C@@H]1C[C@@H]1C[C@H](OC(C)=O)C(C)=C([C@@H](OC(C)=O)[C@@H]2OC(C)=O)C1(C)C` [TAXUSIN] here?
**A.** 157%

**Q.** And the Activity [2]?
**A.** 102%

**Q.** And the Activity [3]?
**A.** 106%

**Q.** What about the Activity [4] of the same molecule?
**A.** 228%

**Q.** What about the Activity [5] of the same molecule?
**A.** 461%

**Q.** And the Activity [6]?
**A.** 136%

**Q.** Which Activity [3] does the source give for `COc1ccc(CCN(C)CCCC(C#N)(c2ccc(OC)c(OC)c2)C(C)C)cc1OC` (centres undefined) [VERAPAMIL] here?
**A.** 104%

**Q.** What about the Activity [4] of the same molecule?
**A.** 145%

**Q.** What about the Activity [5] of the same molecule?
**A.** 352%
